Reference: PubChem BioAssay (NCI)
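Step 1: Grow cells in 96-well plates. Step 2: Expose to compound for 48 hours at 5 concentrations. Step 3: Interpolate endpoints linearly; if unreached, use highest concentration. The concentration for full growth arrest is given as TGI.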

Experiments:
Test in all cases: inhibition of tumour cell growth, NCI panel, 48 h
[1] = system: SF-268 CNS
[2] = system: HOP-62 NSCLC
[3] = system: HS 578T breast
[4] = system: CAKI-1 renal
[5] = system: PC-3 prostate
[6] = system: SN12C renal
[7] = system: SK-MEL-2 melanoma
[8] = system: MDA-MB-435
[9] = system: IGROV1 ovarian
[10] = system: KM12 colon
[11] = system: OVCAR-8 ovarian
[12] = system: UACC-62 melanoma
[13] = system: NCI-H226 lung
[14] = system: CCRF-CEM leukemia
[15] = system: K-562 leukemia
[16] = system: HL-60(TB) leukemia
[17] = system: SK-MEL-5 melanoma
[18] = system: EKVX NSCLC
[19] = system: COLO 205 colon
[20] = system: SK-MEL-28 melanoma
[21] = system: RXF 393 renal
[22] = system: NCI-H460 lung
[23] = system: A498 renal
[24] = system: SF-539 CNS
[25] = system: SK-OV-3 ovarian
[26] = system: HCC-2998 colon
[27] = system: DU-145 prostate
[28] = system: MDA-N
[29] = system: TK-10 renal
[30] = system: MDA-MB-231 breast
[31] = system: SR leukemia
[32] = system: MOLT-4 leukemia
[33] = system: RPMI-8226 leukemia
[34] = system: BT-549 breast
[35] = system: OVCAR-3 ovarian
[36] = system: A549 NSCLC
[37] = system: SF-295 CNS
[38] = system: UACC-257 melanoma
[39] = system: OVCAR-4 ovarian
[40] = system: U251 CNS
[41] = system: OVCAR-5 ovarian
[42] = system: HCT-15 colon
[43] = system: NCI-H522 lung
[44] = system: HOP-92 NSCLC
[45] = system: MCF7 breast
[46] = system: HCT-116 colon
[47] = system: SNB-19 CNS
[48] = system: HT29 colon
[49] = system: UO-31 renal
[50] = system: MALME-3M melanoma
[51] = system: 786-0 renal
[52] = system: T-47D breast
[53] = system: NCI-H23 lung
[54] = system: M14 melanoma
[55] = system: NCI/ADR-RES ovarian
[56] = system: ACHN renal
[57] = system: SW-620 colon
[58] = system: LOX IMVI melanoma

For `CO/C=C(/C(=O)OC)[C@@H]1C[C@@H]1c1ccc2ccccc2c1`, the TGI [1] was 99.2 µM, the TGI [2] was > 100 µM and the TGI [3] was > 100 µM. For the same molecule, the TGI [4] was 66 µM, the TGI [5] was > 100 µM and the TGI [6] was > 100 µM. It also gave a TGI [7] of 35.1 µM, a TGI [8] of 35.1 µM and a TGI [9] of 70.7 µM. The TGI [10] was 54.6 µM, the TGI [11] was > 100 µM and the TGI [12] was > 100 µM. The TGI [13] was > 100 µM, the TGI [14] was 63.1 µM and the TGI [15] was > 100 µM. It also gave a TGI [16] of 49.3 µM, a TGI [17] of 30.3 µM and a TGI [18] of 60 µM. For the same molecule, the TGI [19] was 32.9 µM, the TGI [20] was 81.4 µM and the TGI [21] was > 100 µM. The TGI [22] was > 100 µM, the TGI [23] was > 100 µM and the TGI [24] was 44.2 µM. For the same molecule, the TGI [25] was 59.4 µM, the TGI [26] was 50.5 µM and the TGI [27] was > 100 µM. For the same molecule, the TGI [28] was 65.2 µM, the TGI [29] was > 100 µM and the TGI [30] was > 100 µM. It also gave a TGI [31] of 44.7 µM, a TGI [32] of 65.4 µM and a TGI [33] of 41.9 µM. The TGI [34] was 50.5 µM, the TGI [35] was 73.9 µM and the TGI [36] was 57.4 µM. For the same molecule, the TGI [37] was > 100 µM, the TGI [38] was 71.9 µM and the TGI [39] was 77.1 µM. For the same molecule, the TGI [40] was > 100 µM, the TGI [41] was > 100 µM and the TGI [42] was 49.9 µM. For the same molecule, the TGI [43] was 28.5 µM, the TGI [44] was 72.9 µM and the TGI [45] was > 100 µM. For the same molecule, the TGI [46] was 44.1 µM, the TGI [47] was > 100 µM and the TGI [48] was 48.6 µM. The TGI [49] was > 100 µM, the TGI [50] was 50.6 µM and the TGI [51] was > 100 µM. The TGI [52] was 78.5 µM, the TGI [53] was > 100 µM and the TGI [54] was 71.9 µM. It also gave a TGI [55] of 65.3 µM and a TGI [56] of 78.7 µM.

In the case of `O=C(O)c1nc2cc(Cl)ccc2[nH]c1=O`, the TGI [1] is reported as > 100 µM, the TGI [2] is reported as > 100 µM and the TGI [3] is reported as > 100 µM. The TGI [4] was > 100 µM, the TGI [5] was > 100 µM and the TGI [6] was > 100 µM. For the same molecule, the TGI [7] was > 100 µM, the TGI [8] was > 100 µM and the TGI [9] was > 100 µM. The TGI [10] was > 100 µM, the TGI [11] was > 100 µM and the TGI [12] was > 100 µM. The TGI [13] was > 100 µM, the TGI [14] was > 100 µM and the TGI [15] was > 100 µM. For the same molecule, the TGI [16] was > 100 µM, the TGI [17] was > 100 µM and the TGI [18] was > 100 µM. For the same molecule, the TGI [19] was > 100 µM, the TGI [20] was > 100 µM and the TGI [21] was > 100 µM. For the same molecule, the TGI [22] was > 100 µM, the TGI [23] was > 100 µM and the TGI [24] was > 100 µM. For the same molecule, the TGI [25] was > 100 µM, the TGI [26] was > 100 µM and the TGI [27] was > 100 µM. The TGI [57] was > 100 µM, the TGI [28] was > 100 µM and the TGI [29] was > 100 µM. The TGI [30] was > 100 µM, the TGI [31] was > 100 µM and the TGI [32] was > 100 µM. For the same molecule, the TGI [33] was > 100 µM, the TGI [34] was > 100 µM and the TGI [35] was > 100 µM. The TGI [36] was > 100 µM, the TGI [37] was > 100 µM and the TGI [38] was > 100 µM. The TGI [39] was > 100 µM, the TGI [40] was > 100 µM and the TGI [41] was > 100 µM. For the same molecule, the TGI [42] was > 100 µM, the TGI [43] was > 100 µM and the TGI [44] was > 100 µM. For the same molecule, the TGI [45] was > 100 µM, the TGI [46] was > 100 µM and the TGI [47] was > 100 µM. The TGI [48] was > 100 µM, the TGI [49] was > 100 µM and the TGI [50] was > 100 µM. For the same molecule, the TGI [51] was > 100 µM, the TGI [52] was > 100 µM and the TGI [53] was > 100 µM. The TGI [54] was > 100 µM, the TGI [58] was > 100 µM and the TGI [55] was > 100 µM. For the same molecule, the TGI [56] was > 100 µM.
